Assay results: patent US5747661A, “Retinoid-inducible response elements” (Howard Hughes Medical Institute)
“Also recorded” adds a separate entry of the source.

Assays:
RXRs = details: from the literature; cited from earlier work
RARs = details: from the literature; cited from earlier work
hLXRα = assay: CV-1 cotransfection assay, hLXRα expression plasmid with LXRE luciferase reporter (TK-LXRE3-LUC / TK-LXRE2-LUC); assay type: cell-based, human; details: for LXRα activation of LXRE-containing luciferase reporter (TK-LXRE3-LUC): CV-1 cells, hLXRα transfected alone, 10^-5 M 9cRA, 10^-5 M TTNPB, 10^-4 M methoprene acid, harvested 36 hours after ligand
Procedure: (§1) CV-1 cells were maintained at 37° C., 5% CO2 in DMEM containing 5% calf bovine serum (CBS). Transfections were performed in 8-well plates in media containing 5% dextran-charcoal stripped CBS by the calcium phosphate coprecipitation technique as described previously (Mangelsdorf et al., (1990) supra). Eight hours after transfections ligands were delivered to cells at 10^3 -fold dilutions (0.1% vol/vol of solvent in media). Retinoids (gifts from Marcus Boehm at Ligand Pharmaceuticals, Inc.) were manipulated under gold light and stored dark in ethanol or methanol under nitrogen gas at -80° C. Cells were harvested 36 hours after addition of ligand and analyzed for luciferase and β-galactosidase activity using a Dynatech microtiter plate Model ML3000 luminometer and a Model MR5000 spectrophotometer, respectively.
(§2) For most experiments, cotransfection of DNA into mammalian cells was accomplished with 50 ng reporter plasmid, 50 ng RSV- or CMX-βgal, 25 ng of each receptor expression plasmid and pGEM carrier to give 375 ng DNA/well. For controls, the empty CMX vector was used in place of the receptor cDNA. For the GAL4-receptor chimera experiments, 30 ng receptor and 80 ng of reporter plasmid were used. For GAL4 and VP16 chimera interaction assays, 30 ng of GAL4-LXRα and 15 ng of the VP16-RAR or -RXR were used along with 80 ng of the reporter plasmid. All transfection data points were normalized using an internal β-galactosidase marker (Mangelsdorf et al., (1990) supra) and represent the mean of duplicate or triplicate assays.
To identify a potential ligand for the orphan receptor LXRα, a cell-based cotransfection screening assay similar to that used to successfully identify the RXR ligand (see Mangelsdorf et al., (1990) supra; Heyman et al., in Cell68:397-406 (1992)) was employed. Initially an LXR responsive gene was unknown, therefore the preliminary experiments were designed to first identify an LXR-specific DNA binding sequence that could serve as an LXR responsive element (referred to as an LXRE). […] Thus, an assay system was established by transfecting CV-1 cells with an expression plasmid harboring the cDNA for LXRα and the luciferase reporter plasmid TK-LXRE3-LUC (see FIG. 2a). TK-LXRE3-LUC contains three copies of the LXRE defined herein; TK-CRBPII-LUC contains the RXRE from the rat CRBPII promoter (Mangelsdorf et al., (1991) supra)); TK-βRE-LUC contains the RAR response element from the mouse RARβ2 promoter (Sucov et al., (1990) supra). Luciferase activity is expressed in relative light units (RLU) and represents the mean of triplicate assays (±SEM) normalized to βgal as an internal standard.
Thus, expression plasmids for hLXRα, hRXRα, or no receptor (-) were cotransfected into CV1 cells in combination with the reporter plasmids TK-LUC or TK-LXRE2-LUC as indicated. […]

GAL4-LXR = molecular target: T1, GAL4-LXR (Homo sapiens, UniProt Q13133); assay: GAL4-receptor chimera ligand activation, GAL4-LXR with TK-MH100x4-LUC in CV1 cells; assay type: cell-based; details: 10^-5 M 9cRA, 10^-5 M TTNPB, 10^-4 M methoprene acid, FIG. 3c
T1 construct: hLXRα 166-447; expressed in transfected cells; host or cells: CV-1
T1 sequence (Q13133 166-447): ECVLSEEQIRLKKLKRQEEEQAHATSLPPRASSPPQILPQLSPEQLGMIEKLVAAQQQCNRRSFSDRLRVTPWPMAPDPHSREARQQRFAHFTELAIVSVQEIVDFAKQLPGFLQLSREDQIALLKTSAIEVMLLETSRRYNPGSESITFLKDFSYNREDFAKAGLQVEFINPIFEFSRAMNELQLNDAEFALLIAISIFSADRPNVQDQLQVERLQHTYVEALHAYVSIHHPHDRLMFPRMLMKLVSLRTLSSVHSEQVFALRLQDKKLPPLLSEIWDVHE
Procedure: (§3) FIG. 3C illustrates the ligand specificity of the GAL4-receptor chimeras. […] In both 3B and 3C, CV1 cells were cotransfected as described previously with CMX vectors driving expression of the indicated hybrid proteins and the reporter plasmid TK-MH100x4-LUC, which contains four copies of the GAL4 DNA upstream activation sequence. In FIG. 3C, ligands were added as described with reference to FIG. 2. Luciferase activity is expressed as RLUs (relative light units) corrected for transfection efficiency using an internal […] standard and represents the mean of triplicate assays (±SEM).
Construction of wild-type receptor inserted into the expression vectors RSV and CMX, have been detailed elsewhere (Gigueere et al., in Cell46:645-652 (1986); Umesono et al., in Cell65:1255-1266 (1991); Mangelsdorf et al., (1990) supra). The hLXRα cDNA insert was excised from the plasmid pXR2ΔRV with Kpn1 and BamHI and ligated into the expression vectors RSV and CMX. Chimeric Gal4-receptor expression plasmids (e.g. CMX-GAL4-LXRα) were constructed by first ligating the GAL4 portion of pSG424 (Sadowski and Ptashne, in Nucleic Acids Res. 17:[…] (1989)) into the HindIII/SacI sites of pCMX (Umesono et al., in Cell 65:1255-1266 (1991)) to create pCMX-GAL4. This vector contains the CMV promoter fused to the coding sequence for GAL4 (1-147), followed by inframe polylinker cloning sites and translational stop codons. The cDNAs encoding the ligand-binding domain (LBD) of each of the receptors were then ligated into the polylinker to create GAL4-LBD fusions.
The following receptor amino acid sequences were used for these constructions and their corresponding DNA sequences ligated into pCMX-GAL4:hLXRα 166-447, hRXRα 203-462 and hRARα 185-462.
To address the possibility that the retinoid response elicited by LXRα was through the direct interaction of ligand with the putative ligand binding domain of LXRα, ligand activation experiments were performed with the GAL4-receptor hybrids. […]

GAL4-RAR = molecular target: T2, GAL4-RAR (Homo sapiens, UniProt P10276); assay: GAL4-receptor chimera ligand activation, GAL4-RAR with TK-MH100x4-LUC in CV1 cells; assay type: cell-based; details: 10^-5 M 9cRA, 10^-5 M TTNPB, 10^-4 M methoprene acid, FIG. 3c
T2 construct: hRARα 185-462; expressed in transfected cells; host or cells: CV-1
T2 sequence (P10276 185-462): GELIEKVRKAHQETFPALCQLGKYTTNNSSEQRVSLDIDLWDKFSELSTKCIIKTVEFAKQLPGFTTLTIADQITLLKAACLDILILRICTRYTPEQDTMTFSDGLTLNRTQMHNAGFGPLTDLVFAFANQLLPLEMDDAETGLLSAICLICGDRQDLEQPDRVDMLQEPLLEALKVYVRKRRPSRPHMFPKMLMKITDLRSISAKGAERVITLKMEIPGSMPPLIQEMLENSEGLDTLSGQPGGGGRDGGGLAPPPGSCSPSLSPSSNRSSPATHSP
Procedure: as §3
(§4) The hLXRα cDNA insert was excised from the plasmid pXR2ΔRV with Kpn1 and BamHI and ligated into the expression vectors RSV and CMX. […] The cDNAs encoding the ligand-binding domain (LBD) of each of the receptors were then ligated into the polylinker to create GAL4-LBD fusions.
(§5) Such heterologous system provides an effective means for directly assaying receptor/ligand interactions, even in the presence of endogenous wild-type receptors.

hRXRα [1] = molecular target: T3, hRXRα (Homo sapiens, UniProt P19793); assay: CV-1 cotransfection assay, hRXRα expression plasmid with RXRE luciferase reporter TK-CRBPII-LUC; assay type: cell-based; details: CV1 cells, 10^-4 M methoprene acid, FIG. 2d
T3 construct: Construction of wild-type receptor inserted into the expression vectors RSV and CMX; expressed in transfected cells; host or cells: CV-1
Procedure: as §1
as §2, with “All transfection data points were normalized using an internal β-galactosidase marker (Mangelsdorf et al., (1990) supra) and represent the mean of duplicate or triplicate assays.” left out

LXR/RXR heterodimer = molecular target: T4, LXR/RXR heterodimer (Homo sapiens, UniProt P19793); assay: CV1 cotransfection of both hLXRα and hRXRα with LXRE reporter TK-LXRE2-LUC; assay type: cell-based; details: CV1 cells, 25 ng hLXRα:2.5 ng hRXRα; 10^-4 M methoprene acid; FIG. 4
T4 construct: Construction of wild-type receptor inserted into the expression vectors RSV and CMX; expressed in transfected cells; host or cells: CV-1
Procedure: Thus, expression plasmids for hLXRα, hRXRα, or no receptor (-) were cotransfected into CV1 cells in combination with the reporter plasmids TK-LUC or TK-LXRE2-LUC as indicated. Cells were then incubated with ethanol control (-) or […] methoprene acid (+) and assayed for luciferase activity as described above. TK-LXRE2-LUC contains two copies of the LXRE. In experiments in which LXR and RXR plasmids were cotransfected together the ratio of the two expression plasmids was 1:0.1 (25 ng hLXRα:2.5 ng hRXRα). In all other experiments were LXR and RXR were added alone, the amount of each receptor expression plasmid was 25 ng.

GAL4-RXR = molecular target: T5, GAL4-RXR (Homo sapiens, UniProt P19793); assay: GAL4-receptor chimera ligand activation, GAL4-RXR with TK-MH100x4-LUC in CV1 cells; assay type: cell-based; details: 10^-5 M 9cRA, 10^-5 M TTNPB, 10^-4 M methoprene acid, FIG. 3c
T5 construct: hRXRα 203-462; expressed in transfected cells; host or cells: CV-1
Procedure: as §3, §4, §5

hRARα = molecular target: T6, hRARα (Homo sapiens, UniProt P10276); assay: CV-1 cotransfection assay with RAR response element luciferase reporter (TK-βRE-LUC); assay type: cell-based; details: CV1 cells; 10^-5 M TTNPB, 10^-4 M methoprene acid; occurs also without transfected RAR or RXR
T6 construct: Construction of wild-type receptor inserted into the expression vectors RSV and CMX; expressed in transfected cells; host or cells: CV-1
Procedure: as §1
as §2, with “All transfection data points were normalized using an internal β-galactosidase marker (Mangelsdorf et al., (1990) supra) and represent the mean of duplicate or triplicate assays.” left out

hRXRα [2] = molecular target: T3, hRXRα; assay: CV1 cotransfection of hRXRα alone with LXRE luciferase reporter; assay type: cell-based; details: CV1 cells, 25 ng hRXRα; 10^-4 M methoprene acid; FIG. 4
Procedure: as §1
as §2, with “All transfection data points were normalized using an internal β-galactosidase marker (Mangelsdorf et al., (1990) supra) and represent the mean of duplicate or triplicate assays.” left out

LXRα/RXRα heterodimer = LXRα/RXRα heterodimer (Homo sapiens, UniProt Q13133;P19793 Q13133:1-447,P19793:1-462); assay: EMSA; strong complex; supershifted by anti-RXRα; 75 mM KCl, 20 mM Hepes pH 7.4; details: tags: none; coupled in vitro transcription/translation (Promega); label: 32P; HindIII overhangs
Procedure: (§6) For EMSA experiments, receptor proteins were generated using a coupled in vitro transcription/translation system according to the manufacturer's instructions (Promega). Sequences of double-stranded oligonucleotides were as shown in the figures and text and were synthesized with HindIII overhangs. Binding reactions were performed in a total volume of 20 μl consisting of 75 mM KCl, 20 mM Hepes, pH 7.4, 2 mM DTT, 7.5% glycerol, 0.1% NP-40, 2
(§7) MG poly (dI-dC) (Pharmacia), 40 pmol of a non-specific single-stranded oligonucleotide (for removal of non-specific binding in the lysates), and 2 μl of receptor lysates or unprogrammed (control) lysates. Reactions containing lysates and competing oligonucleotides were incubated for 30 minutes on ice followed by the addition of 40 fmol of ^32P-labeled oligonucleotide probe (labeled by end-filling) and further incubated for 20 minutes at room temperature. Samples were then analyzed on 5% polyacrylamide gels run in 0.5X TBE buffer. For antibody supershifting experiments, 1 μl of anti-hRXRα antiserum (a gift from Jacki Dyck), or non-specific antiserum was added to the reactions after addition of the radiolabeled probe and incubated at room temperature for 10 minutes, followed by gel electrophoresis.

RXRα = RXRα (Homo sapiens, UniProt P19793 P19793:1-462); assay: EMSA; RXRα alone; details: label: 32P; HindIII overhangs
Procedure: as §6, §7

T3 sequence (P19793 whole entry): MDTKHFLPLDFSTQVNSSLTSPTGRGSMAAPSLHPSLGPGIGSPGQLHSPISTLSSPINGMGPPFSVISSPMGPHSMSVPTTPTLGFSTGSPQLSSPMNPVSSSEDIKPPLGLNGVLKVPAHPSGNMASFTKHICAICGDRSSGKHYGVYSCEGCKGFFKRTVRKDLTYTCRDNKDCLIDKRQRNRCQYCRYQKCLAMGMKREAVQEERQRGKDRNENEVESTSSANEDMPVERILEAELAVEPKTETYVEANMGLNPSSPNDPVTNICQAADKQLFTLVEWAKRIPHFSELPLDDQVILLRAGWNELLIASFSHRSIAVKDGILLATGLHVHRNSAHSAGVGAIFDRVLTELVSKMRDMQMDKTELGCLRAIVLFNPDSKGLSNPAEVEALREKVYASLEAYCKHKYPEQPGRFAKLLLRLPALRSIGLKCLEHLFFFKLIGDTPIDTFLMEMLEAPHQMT
T4 sequence (Q13133 whole entry A196R): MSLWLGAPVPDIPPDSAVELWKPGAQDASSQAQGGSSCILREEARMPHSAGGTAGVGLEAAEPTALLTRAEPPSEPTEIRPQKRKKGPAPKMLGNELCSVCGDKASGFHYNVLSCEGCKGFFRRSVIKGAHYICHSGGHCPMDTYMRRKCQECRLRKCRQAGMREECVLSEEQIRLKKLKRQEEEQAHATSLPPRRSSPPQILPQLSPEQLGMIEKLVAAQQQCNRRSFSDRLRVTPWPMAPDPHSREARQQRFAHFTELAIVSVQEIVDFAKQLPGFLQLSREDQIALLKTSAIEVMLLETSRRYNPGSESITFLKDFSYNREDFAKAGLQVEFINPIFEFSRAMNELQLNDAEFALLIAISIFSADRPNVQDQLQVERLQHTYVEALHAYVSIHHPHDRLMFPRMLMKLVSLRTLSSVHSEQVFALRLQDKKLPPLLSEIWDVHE
T4 sequence (P19793 whole entry): as the sequence (P19793 whole entry) above
LXRα/RXRα heterodimer, sequence (P19793 whole entry, one chain of several): as the sequence (P19793 whole entry) above
RXRα, sequence (P19793 whole entry, one chain of several): as the sequence (P19793 whole entry) above
T6 sequence (P10276 whole entry): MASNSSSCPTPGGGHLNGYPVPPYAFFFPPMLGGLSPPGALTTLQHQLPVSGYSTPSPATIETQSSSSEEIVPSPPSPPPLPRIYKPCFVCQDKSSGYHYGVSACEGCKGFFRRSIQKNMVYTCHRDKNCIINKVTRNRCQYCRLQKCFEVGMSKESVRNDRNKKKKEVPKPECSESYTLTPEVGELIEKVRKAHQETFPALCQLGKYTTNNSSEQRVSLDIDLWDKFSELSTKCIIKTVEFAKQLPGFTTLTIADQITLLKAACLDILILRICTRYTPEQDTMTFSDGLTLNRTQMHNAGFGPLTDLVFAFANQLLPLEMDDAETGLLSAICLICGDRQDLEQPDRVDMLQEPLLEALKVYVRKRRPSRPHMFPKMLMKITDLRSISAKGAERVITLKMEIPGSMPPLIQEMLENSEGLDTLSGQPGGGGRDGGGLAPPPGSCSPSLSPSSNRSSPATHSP
T6 sequence (P19793 whole entry, further chain): as the sequence (P19793 whole entry) above
T5 sequence (P19793 203-462): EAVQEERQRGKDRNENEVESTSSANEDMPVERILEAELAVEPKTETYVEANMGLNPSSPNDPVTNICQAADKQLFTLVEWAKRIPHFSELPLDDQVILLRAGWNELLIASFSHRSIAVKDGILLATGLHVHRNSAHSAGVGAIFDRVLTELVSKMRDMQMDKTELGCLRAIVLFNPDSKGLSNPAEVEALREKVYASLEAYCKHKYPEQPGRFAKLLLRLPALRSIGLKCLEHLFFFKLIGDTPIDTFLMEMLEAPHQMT

Molecule	Ligand binding / specificity for RXR (RXRs)	Ligand binding / specificity for RAR (RARs)	LXRα activation of LXRE-containing luciferase reporter (TK-LXRE3-LUC) (hLXRα)	Ligand inducible transactivation by GAL4-LXR chimera (GAL4-LXR)	Ligand inducible transactivation by GAL4-RAR chimera (GAL4-RAR)	other results
CC1=C(/C=C/C(C)=C/C=C/C(C)=C/C(=O)O)C(C)(C)CCC1 [atRA, All-trans retinoic acid]	ligand for only RARs	ligand for only RARs	–	–	–	–
C/C(=C\c1ccc(C(=O)O)cc1)c1ccc2c(c1)C(C)(C)CCC2(C)C [TTNPB, (E)-4-[2-(5,6,7,8-tetrahydro-5,5,8,8-tetramethyl-2-napthalenyl) -1-propenyl]benzoic acid]	–	RAR-specific	no effect	no activation	–	–
CC1=C(/C=C/C(C)=C\C=C\C(C)=C\C(=O)O)C(C)(C)CCC1 [9cRA, 9-cis retinoic acid]	high affinity ligand for both RARs and RXRs; also recorded: binds to both RXR and RAR	high affinity ligand for both RARs and RXRs; also recorded: binds to both RXR and RAR	strongly activated	no activation	activates both RXR and RAR	–
COC(C)(C)CCCC(C)C/C=C/C(C)=C/C(=O)O (centres unmarked) [methoprene acid]	RXR-specific	–	strongly activated; also recorded: strongly activates transcription	no activation	only activates RXR	Response of RXRE reporter TK-CRBPII-LUC in the presence of RXRα (hRXRα [1]; hRXRα transfected): marked response; Response of RXRE reporter TK-CRBPII-LUC with RARα or LXRα transfected instead of RXRα (hRXRα [1]): not RARα or LXRα; Retinoid responsive activity of TK-LXRE2-LUC with LXRα and RXRα together (LXR/RXR heterodimer): dramatic synergistic increase; Ligand inducible transactivation by GAL4-RXR chimera (GAL4-RXR): only activates RXR; Retinoid response of RAR response element reporter (hRARα): occurs through an RXR homodimer; Ligand response of TK-LXRE2-LUC with RXRα alone (hRXRα [2]): no response; Ligand response of TK-LXRE2-LUC with LXRα alone (hLXRα; CV1 cells, 25 ng hLXRα, methoprene acid, FIG. 4): marked ligand response
LXRE (ΔMTV) (dsDNA) DNA 1: CTTGCGGTTCCCAGGGTTTAAATAAGTTCA DNA 2: TGAACTTATTTAAACCCTGGGAACCGCAAG	–	–	–	–	–	binding result (LXRα/RXRα heterodimer): binds; binding result (RXRα): no binding
